One test deals with T1, BbhV (Bifidobacterium bifidum, UniProt A0ABN5UYD8).
T1 construct: gene BBBF_1623; residues 35-1111 of 1139 aa, signal peptide and C-terminal TM region removed, C-terminal His6 tag kept; E. coli; 171 kDa by SEC, dimer
The test can be described thus: initial velocities, p-nitrophenolate release ([…] nm), Michaelis-Menten fit. The test is classed as biochemical. The following applies: 0.1-5.0 mM substrate; McIlvaine buffer, pH optimum 5.5 (pH and temperature of the kinetics not stated).

The target of test [1] is BbhV (GH84 β-N-acetylglucosaminidase of Bifidobacterium bifidum JCM 1254), residues 35-1111, C-terminal His6 (Bifidobacterium bifidum JCM 1254). The test can be described thus: SEC; Superdex 200 Increase 10/300 GL; 10 mM Tris-HCl pH 8.0, 150 mM NaCl; native mass estimated against thyroglobulin, ferritin, aldolase and conalbumin standards.

T1 sequence (A0ABN5UYD8 entry or part of it): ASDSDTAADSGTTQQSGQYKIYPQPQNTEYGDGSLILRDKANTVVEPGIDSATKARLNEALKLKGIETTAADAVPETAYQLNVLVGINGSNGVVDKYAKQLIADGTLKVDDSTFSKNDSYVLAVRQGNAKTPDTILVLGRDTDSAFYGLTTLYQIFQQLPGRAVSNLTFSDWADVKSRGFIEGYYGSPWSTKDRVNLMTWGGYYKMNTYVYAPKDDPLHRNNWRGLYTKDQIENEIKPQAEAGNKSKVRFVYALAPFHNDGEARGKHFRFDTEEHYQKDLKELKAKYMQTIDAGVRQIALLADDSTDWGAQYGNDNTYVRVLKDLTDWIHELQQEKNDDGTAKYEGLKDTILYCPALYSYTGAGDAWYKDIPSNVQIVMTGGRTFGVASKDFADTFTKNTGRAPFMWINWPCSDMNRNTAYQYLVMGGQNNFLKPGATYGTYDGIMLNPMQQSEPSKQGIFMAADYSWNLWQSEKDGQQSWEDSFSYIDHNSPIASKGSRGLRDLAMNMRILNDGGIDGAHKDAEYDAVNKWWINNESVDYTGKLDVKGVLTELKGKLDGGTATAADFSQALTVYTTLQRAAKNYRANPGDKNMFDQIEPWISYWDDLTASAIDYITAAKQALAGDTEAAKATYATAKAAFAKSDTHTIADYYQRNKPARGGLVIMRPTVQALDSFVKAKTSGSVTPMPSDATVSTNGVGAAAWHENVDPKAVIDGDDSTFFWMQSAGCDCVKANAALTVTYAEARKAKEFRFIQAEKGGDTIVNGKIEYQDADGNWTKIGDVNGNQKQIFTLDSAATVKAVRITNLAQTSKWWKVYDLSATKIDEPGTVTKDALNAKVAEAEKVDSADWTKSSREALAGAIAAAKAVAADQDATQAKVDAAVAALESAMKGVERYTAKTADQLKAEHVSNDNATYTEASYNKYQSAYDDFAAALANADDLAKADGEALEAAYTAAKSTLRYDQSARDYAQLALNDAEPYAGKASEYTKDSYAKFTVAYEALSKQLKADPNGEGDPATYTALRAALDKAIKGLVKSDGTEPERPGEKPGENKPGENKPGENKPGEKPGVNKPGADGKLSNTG

Regarding `CC(=O)N[C@H]1[C@H](Oc2ccc([N+](=O)[O-])cc2)O[C@H](CO)[C@@H](O)[C@@H]1O` [GlcNAcβ-pNP], at BbhV, the Michaelis-Menten constant (Km) was 1000 µM.

As for “BbhV (GH84 β-N-acetylglucosaminidase of Bifidobacterium bifidum JCM 1254), residues 35-1111, C-terminal His6 (enzyme)”, the stoichiometry N in test [1] is 2.

By Km is commonly meant the concentration of substrate that gives half-maximal velocity. A word on the stoichiometry N: it is the number of molecules, sites or subunits per partner or assembly.
